Results taken from patent US6319929A, “Suksdorfin analogs, compositions thereof, and methods for making and using thereof” (priority 1998, dated 2001).
Where “and” joins values, the source holds several entries; their conditions need not be identical. Equal values may be shown once. Read-outs that look alike come from different tables or passages of the source.

How the values were obtained:
[1] = tested on: chronically HIV-1 infected U1 cells; assay: Virus expression from chronically HIV-1 infected monocytic cell line U1 (p24 antigen ELISA); type: cell-based
Procedure: (§1) Effects of suksdorfin analogs on Chronically HIV-1 infected cells. The experimental design is as follows: The phorbol ester, PMA (10^-8 M) and various concentrations of suksdorfin were either added or not added to both the chronically HIV-1 infected T cell line (ACH-2) and to the chronically HIV-1 infected monocytic cell line (U1). Cell-free supernatant was collected 72 hours post culture for p24 antigen ELISA.
Compound 16 was also assayed on ACH-2 (chronically HIV-1 infected T cell line). U1 cells are also chronically HIV-1 infected cells but they are from the monocytic cell line, U937. The data presented in Table 8 indicates the following points:
(§2) Chronically HIV-1 infected cell lines. HIV-1 chronically infected T cell line, ACH-2^12, and HIV-1 chronically infected promonocytic cell line, U1 13, were continuously maintained in RPMI 1640 with 10% fetal calf serum (FCS). For experiments, the cell lines were only used in the […] of growth. Cells (0.5×10^6 cells/well) and either various concentrations of suksdorfin or medium alone were added to 24-well plates in the presence or absence of PMA (10^-8 M). After 72 hours at 37° C. and 5% CO2, an aliquot of the cell-free supernatants were collected and analyzed for p24 antigen by ELISA (see below for details of p24 antigen ELISA).

[2] = tested on: HIV-1 replication in U937 cells; assay: HIV-1 replication in acutely infected promonocytic U937 cells; type: cell-based, HIV-1 (IIIB); conditions: for EC50: Human immunodeficiency virus 1, U-937
Procedure: Suksdorfin was also tested on an acute HIV-1 infection of the promonocytic cell line, U937. This was done again to determine drug specificity but this time on a monocytic cell line.
As part of efforts to biologically characterize 16 the monocytic cell line, U937 and peripheral blood mononuclear cells (PBMCs) were separately infected with HIV-1 and then had various concentrations of the analog added for 4 days of culture.
HIV Growth Inhibition Assay: The T cell line, H9, and the promonocytic cell line, U937, were maintained separately in continuous culture with complete medium (RPMI 1640 and […] fetal calf serum (FCS) at 5% CO2 and 37° C. Cell lines were used in experiments only when in log phase of growth; whereas, uninfected peripheral blood mononuclear cells (PBMCs) were first stimulated with PHA (1 μg/ml) for 3 days. All cell targets were incubated with HIV-1 (IIIB isolate, TCID50 10 ^4 IU/mi, at a multiplicity of infection of 0.1-0.01 IU/cell) for 1 hour at 37° C. and 5% CO2. The cell lines and PBMCs were washed thoroughly to remove unabsorbed virions and resuspended at 4×10^5 cells/ml in complete medium or complete medium with 10% v/v interleukin […] IL-2, respectively. Aliquots ( ml) were placed in wells of 24-well culture plates containing an equal volume of test compound (diluted in the appropriate culture medium). After incubation for 4 days at 37° C., cell density of uninfected cultures was determined by counting cells in a Coulter counter to assess toxicity of the test compound. A p24 antigen ELISA assay was used to determine the level of virus released in the medium of the HIV-infected cultures. The p24 antigen assay uses a HIV-1 anti-p24 specific monoclonal antibody as the capture antibody coated-on 96-well plates. Following a sample incubation period, rabbit serum containing antibodies for HIV-1 p24 is used to tag any p24 "captured" onto the microtiter well surface. Peroxidase conjugated goat anti-rabbit serum is then used to tag HIV-1 p24 specific rabbit antibodies which have complexed with captured p24. […] The cut-off for the p24 ELISA assay is 12. pg/ml. P24 in the culture medium was quantitated against a standard curve containing known amounts of p24. The effective (EC50) and inhibitory (IC50) concentrations (for anti-HIV activity and cytotoxicity, respectively) were determined graphically. Both the EC50 and IC50 values were calculated by plotting drug concentration versus percent inhibition, and then identifying a 50% inhibition value from the graph.

[3] = tested on: HIV-1 replication in H9 cells; assay: HIV-1 replication inhibition in acutely infected H9 lymphocytes (p24 antigen ELISA); type: cell-based, HIV-1 (IIIB strain)
Outline: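 H9 T cells exposed to HIV-1 IIIB (0.01-0.1 TCID50/cell) for 1 h at 37° C, washed, then grown with compound for 3-4 days at 37° C. Toxicity taken from cell counts of uninfected cultures and virus from p24 ELISA of supernatants. EC50 and IC50 were read graphically from concentration versus percent inhibition plots.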

[4] = tested on: chronically HIV-1 infected ACH-2 cells; assay: Virus expression from chronically HIV-1 infected T cell line ACH-2 (p24 antigen ELISA); type: cell-based
Procedure: as §1
Results (Table 11) from adding compound 16 to the chronically HIV-infected T cell line, ACH-2, according to methods in above examples. ACH-2 are a chronically HIV-1 infected T cell line. It was derived from A3.01 cells which is a subclone of the CEM cell line. The data below indicates the following points:
as §2

## CC1(C)Oc2ccc3ccc(=O)oc3c2[C@@H](OC(=O)[C@@]23CC[C@@](C)(C(=O)O2)C3(C)C)[C@H]1OC(=O)[C@@]12CC[C@@](C)(C(=O)O1)C2(C)C [Compound 16, 3',4'-Di-O-(-)-Camphanoyl-(+)-cis-Khellactone]
[1]; U1, +PMA, 0.0000102 μg/ml
  P24: 7328 pg/mL
[1]; U1, +PMA, 0.0000512 μg/ml
  P24: 8710 pg/mL
[1]; U1, +PMA, 0.00025 μg/ml
  P24: 7757 pg/mL
[1]; U1, +PMA, 0.00128 μg/ml
  P24: 6335 pg/mL
[1]; U1, +PMA, 0.0064 μg/ml
  P24: 6419 pg/mL
[1]; U1, +PMA, 0.032 μg/ml
  P24: 8090 pg/mL
[1]; U1, +PMA, 0.16 μg/ml
  P24: 7162 pg/mL
[1]; U1, +PMA, 0.8 μg/ml
  P24: 8390 pg/mL
[1]; U1, +PMA, 4 μg/ml
  P24: 8742 pg/mL
[1]; U1, +PMA, 20 μg/ml
  P24: 9530 pg/mL
[1]; U1, -PMA, 0.0000102 μg/ml
  P24: 52 pg/mL
[1]; U1, -PMA, 0.0000512 μg/ml
  P24: 56 pg/mL
[1]; U1, -PMA, 0.00025 μg/ml
  P24: 78 pg/mL
[1]; U1, -PMA, 0.00128 μg/ml
  P24: 99 pg/mL
[1]; U1, -PMA, 0.0064 μg/ml
  P24: 90 pg/mL
[1]; U1, -PMA, 0.032 μg/ml
  P24: 101 pg/mL
[1]; U1, -PMA, 0.16 μg/ml
  P24: 76 pg/mL
[1]; U1, -PMA, 0.8 μg/ml
  P24: 88 pg/mL
[1]; U1, -PMA, 4 μg/ml
  P24: 41 pg/mL
[1]; U1, -PMA, 20 μg/ml
  P24: 95 pg/mL
[1]; with PMA
  effect on virus expression of PMA-stimulated U1 cells (in words): did not suppress virus replication
[1]; without PMA
  induction of virus expression from U1 cells (in words): did not induce the U1 cells to make virus
[2]; U937 cell line
  EC50: 1.28 ng/mL
[2]; U937 cells
  EC50: 2.1 nM
  suppression of acute HIV-1 replication in U937 cells (in words): suppression detected
[3]; 0.000256 μg/ml, separate assays, H9
  suppression: 35%
[3]; Human immunodeficiency virus 1, H9, 0.000256 μg/ml, separate assays, H9, read-out: suppression
  inhibition at 0.000256 µg/mL: 44%
[3]; Human immunodeficiency virus 1, H9, H9, text to Table 7, read-out: EC50
  EC50: ≥ 0.000256 µg/mL and 0.41 nM
[3]; Human immunodeficiency virus 1, H9, H9 lymphocytes, Table 3, read-out: ED^50 (the source's name)
  EC50: ≥ 0.41 nM
[3]; Human immunodeficiency virus 1, H9, Table 3, H9 lymphocytes, read-out: EC50
  EC50: 0.41 nM
[3]; Human immunodeficiency virus 1, H9, Table 7, read-out: EC5
  EC50: 0.000256 µg/mL and 0.41 nM
[3]; Human immunodeficiency virus 1, H9, Table 17, acutely infected H9 lymphocytes, read-out: EC50
  EC50: 0.41 nM
[3]; acutely infected H9 cells
  anti-HIV activity in H9 cells (in words): potent anti-HIV activity
[4]; ACH-2, +PMA, 0.0000102 μg/ml
  P24: 17,938 pg/ml
[4]; ACH-2, +PMA, 0.0000512 μg/ml
  P24: 16,079 pg/ml
[4]; ACH-2, +PMA, 0.00025 μg/ml
  P24: 22,756 pg/ml
[4]; ACH-2, +PMA, 0.00128 μg/ml
  P24: 22,344 pg/ml
[4]; ACH-2, +PMA, 0.032 μg/ml
  P24: 24,650 pg/ml
[4]; ACH-2, +PMA, 0.064 μg/ml [0.010 μM] (so in the source)
  P24: 24,364 pg/ml
[4]; ACH-2, +PMA, 0.16 μg/ml
  P24: 21,865 pg/ml
[4]; ACH-2, +PMA, 0.8 μg/ml
  P24: 20,183 pg/ml
[4]; ACH-2, +PMA, 4 μg/ml
  P24: 23,547 pg/ml
[4]; ACH-2, +PMA, 20 μg/ml
  P24: 24,858 pg/ml
[4]; ACH-2, -PMA, 0.0000102 μg/ml
  P24: 666 pg/mL
[4]; ACH-2, -PMA, 0.0000512 μg/ml
  P24: 659 pg/mL
[4]; ACH-2, -PMA, 0.00025 μg/ml
  P24: 777 pg/mL
[4]; ACH-2, -PMA, 0.00128 μg/ml
  P24: 811 pg/mL
[4]; ACH-2, -PMA, 0.032 μg/ml
  P24: 1319 pg/mL
[4]; ACH-2, -PMA, 0.064 μg/ml [0.010 μM] (so in the source)
  P24: 955 pg/mL
[4]; ACH-2, -PMA, 0.16 μg/ml
  P24: 1174 pg/mL
[4]; ACH-2, -PMA, 0.8 μg/ml
  P24: 976 pg/mL
[4]; ACH-2, -PMA, 4 μg/ml
  P24: 1194 pg/mL
[4]; ACH-2, -PMA, 20 μg/ml
  P24: 1509 pg/mL
[4]; with PMA
  effect on virus expression of PMA-stimulated ACH-2 cells (in words): did not suppress virus replication
[4]; without PMA
  induction of virus expression from ACH-2 cells (in words): did not induce the ACH-2 cells to make virus
